In patent publication US20260055441A1, “A PCR-ELISA ANALOGOUS ANTIBODY-FREE METHOD FOR DETECTING A TARGET NUCLEIC ACID IN A SAMPLE” (UNIVERSITÄT HEIDELBERG, priority 2022, published 2026):
“Also recorded” adds a separate entry of the source. Residues, ends and D or L forms follow the SMILES beside them. *: point of attachment. AMC = Cc1cc(=O)oc2cc(N*)ccc12; Cbz = O=C(OCc1ccccc1)*

Tests used:
[1] = target: T1, papain (Carica papaya, UniProt P00784); settings: literature (Whitesides group; Lukesh et al., 2012); cited from earlier work
T1 sequence (P00784 134-345): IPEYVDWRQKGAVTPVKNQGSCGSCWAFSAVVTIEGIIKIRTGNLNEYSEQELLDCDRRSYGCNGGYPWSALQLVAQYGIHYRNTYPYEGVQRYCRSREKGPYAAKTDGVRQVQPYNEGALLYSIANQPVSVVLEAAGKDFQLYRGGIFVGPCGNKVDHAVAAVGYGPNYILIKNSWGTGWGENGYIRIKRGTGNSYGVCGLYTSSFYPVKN

[2] = target: T2, latent papain (Carica papaya, UniProt P00784); assay: Latent papain reactivation with selenium/thiol activators in presence of TCEP, rates normalized to blank (FIG. 22); assay type: biochemical; settings: latent papain 1 nM; for activator efficiency (normalized rate/rate blank), in words: 50 pM-100 nM activator, 1 μM TCEP (FIG. 22)
T2 construct: purchased Sigma Aldrich (Munich, Germany); host or cells: Papaya latex (natural source)
T2 sequence (P00784 134-345): T1 sequence (P00784 134-345)
Procedure: To this end, cysteine ethyl ester, DTT, DTBA (9) and SeDTBA (11) were chosen for a direct comparison. […] The resulting reaction rates were normalized against the background activity and the resulting normalized rates are presented in FIG. 22 for the concentration range of 50 pM-100 nM.
Different assays of reactivating latent papain in solution were conducted in the course of this work. Various buffer compositions, supplements, 96 well plates, substrates, activators, concentrations as well as different latent papain forms were compared. In order to get an overview of all experiments, a standard method is described in the following and variations of this method are subsequently defined. First, the well buffer was prepared (0.1 M phosphate buffer pH 7, 4 mM EDTA, 0.01% Brij35). A 1 mM TCEP solution was prepared with 3 mM NaOH in 0.1 M Tris-HCl buffer pH 8. Papain substrate (Z-Phe-Arg-AMC or Suc-Leu-Leu-Val-Tyr-AMC) was prepared as a 200 μM solution in water and transferred equally to a PCR strip. Three serial dilutions of the activating agent with well buffer were used in the different experiments and the corresponding pipetting schemes are shown in Table 9. Papain was diluted to 0.1 μM with well buffer and transferred equally to a PCR strip. […] After mixing, 30 μL of the prepared activator concentrations (see Table 9) were added and mixed. In the last step, 3.8 μL of the substrate solution was added and mixed, to yield a final well composition of 0.1 M phosphate buffer pH 7, 1 nM papain, 2 μM substrate, activator (see Table 9), 4 mM EDTA, 0.01% Brij35 and 1 μM TCEP. For experiments with only one activator concentration of 10 μM, the transferred well buffer for each well was 368.6 μL, followed by 3.8 μL of papain, substrate and activator (1 mM in well buffer) respectively.

[3] = target: T3, latent papain P13 (Carica papaya, UniProt P00784); assay: Screening of peptide-based papain activators, rates normalized to cysteine ethyl ester (FIG. 19, FIG. 20); assay type: biochemical
T3 construct: purchased Sigma Aldrich (Munich, Germany); host or cells: Papaya latex (natural source)
T3 sequence (P00784 134-345): T1 sequence (P00784 134-345)
Procedure: L-Cysteine ethyl ester was utilized in identical peptide concentrations as a standard in order to calculate normalized reaction rates for each synthesized peptide.
[…] The assays were conducted in well buffer with 1 nM latent papain P13. In order to give a clear overview, only the normalized rates for activator concentrations of 50 nM are depicted and compared.
Additionally, 1 μM TCEP was added to each well of the cysteine concentration series in order to examine the influence of TCEP on reaction rates of thiols.
Different assays of reactivating latent papain in solution were conducted in the course of this work. Various buffer compositions, supplements, 96 well plates, substrates, activators, concentrations as well as different latent papain forms were compared. In order to get an overview of all experiments, a standard method is described in the following and variations of this method are subsequently defined. First, the well buffer was prepared (0.1 M phosphate buffer pH 7, 4 mM EDTA, 0.01% Brij35). A 1 mM TCEP solution was prepared with 3 mM NaOH in 0.1 M Tris-HCl buffer pH 8. Papain substrate (Z-Phe-Arg-AMC or Suc-Leu-Leu-Val-Tyr-AMC) was prepared as a 200 μM solution in water and transferred equally to a PCR strip. Three serial dilutions of the activating agent with well buffer were used in the different experiments and the corresponding pipetting schemes are shown in Table 9. Papain was diluted to 0.1 μM with well buffer and transferred equally to a PCR strip. […] 342.4 μL of TCEP containing well buffer was transferred to each well, followed by 3.8 μL papain solution. After mixing, 30 μL of the prepared activator concentrations (see Table 9) were added and mixed. In the last step, 3.8 μL of the substrate solution was added and mixed, to yield a final well composition of 0.1 M phosphate buffer pH 7, 1 nM papain, 2 μM substrate, activator (see Table 9), 4 mM EDTA, 0.01% Brij35 and 1 μM TCEP. For experiments with only one activator concentration of 10 μM, the transferred well buffer for each well was 368.6 μL, followed by 3.8 μL of papain, substrate and activator (1 mM in well buffer) respectively.

[4] = Jacob et al., 2003; cited from earlier work
[5] = target: T1, papain; settings: Ménard et al. 1990; cited from earlier work
[6] = Huber et al. 1967; cited from earlier work
[7] = target: T4, H2N-CLR-CONH2
T4 chain: CLR

[8] = target: T5, H2N-CFR-CONH2
T5 chain: CFR

[9] = target: T6, dU-triazole-PEG3-ULR dimer (21) (not fully specified)
T6 chain: ULR

[10] = FIG. 20, concentration series 50 nM-10 μM
[11] = concentration series 50 nM-10 μM, papain P13 1 nM (FIG. 20)

## CN(C(=O)CS)N(C)C(=O)CS [DMH, N,N-dimethyl-N,N′-bis(mercaptoacetyl)hydrazine]
[1]
  papain activation rate compared to DTT: 32 times

## CN(C)C(=O)[C@H](S)CC[C@H](S)C(=O)N(C)C [DTA, meso-2,5-dimercapto-N,N,N,N-tetramethyladipamide]
[1]
  papain activation rate compared to DTT: 4.5 times

## N[C@H](CS)CCS [DTBA (9), dithiobutylamine]
[1]
  papain activation rate compared to DTT: 14 times
[2]; activator 50 nM, 1 μM TCEP
  rate relative to DTT: 13.6 times

## O[C@@H](CS)[C@@H](O)CS [DTT]
[2]
  activator efficiency (normalized rate/rate blank), in words: no substantial rate increase

## CCOC(=O)[C@@H](N)CS.Cl [L-cysteine ethyl ester, L-Cysteine ethyl ester hydrochloride]
[3]; [10]
  potency relative to (L-)cysteine: approximately 2.25 times
[2]
  activator efficiency (normalized rate/rate blank), in words: no substantial rate increase

## N[C@@H](CS)C(=O)O [L-cysteine]
[4]
  redox potential E^0′: −0.233 V
[3]; [11]
  normalized rate compared to cysteine ethyl ester: around 40%
  normalized rate compared to the tripeptide H2N-CLR-CONH2: around 25%

## Cc1cc(=O)oc2cc(NC(=O)[C@H](CCCNC(=N)N)NC(=O)[C@H](Cc3ccccc3)NC(=O)OCc3ccccc3)ccc12 [Z-Phe-Arg-AMC, Z-Phe-Arg 7-amido-4-methylcoumarin] (Cbz-Phe-Arg-{AMC})
[5]
  Km: 420 µM
  kcat: 52 s⁻¹

## N[C@@H](C[SeH])C(=O)O [selenocysteine]
[4]
  redox potential E^0′: −0.488 V
[3]; [10]
  activator efficiency, in words: more potent activators compared to the tripeptide
[3]; concentration series 50 nM-10 μM (FIG. 20), selenocysteine prepared with TCEP
  rate relative to the tripeptide H2N-CLR-CONH2: 6.5 times
[6]
  pKa: 5.2

## seleno-dithiobutylamin [SeDTBA (11)]
[2]
  activator efficiency (normalized rate/rate blank), in words: second most efficient activator; also recorded: almost twice as high compared to DTBA (9)

B1: latent papain, reversibly inactivated with S-methyl methanethiosulfonate (-S-S-CH3) (protein)
chain: T1 sequence (P00784 134-345)
[7]
  normalized ratio rate/rate 10 uM cysteine of substrate hydrolysis after reactivation of latent papain (1 nM), activator 10 uM (fold of the rate with L-cysteine): 2
[8]
  normalized ratio rate/rate 10 uM cysteine of substrate hydrolysis after reactivation of latent papain (1 nM), activator 10 uM (fold of the rate with L-cysteine): 2
[9]
  normalized ratio rate/rate blank of substrate hydrolysis after reactivation of latent papain (1 nM) with activator 1-15 nM: The normalized reaction rates for papain P20 now appeared the highest of all papain forms
